Test results reported in US20070049578A1, “Cinnamamide compounds as metabotropic glutamate receptor antagonists” (AstraZeneca AB, priority 2005, published 2007).

Molecular target: T1, human mGluR5d (Homo sapiens, UniProt P41594)
T1 construct: expressed in transfected cells; host or cells: GHEK (human embryonic kidney cells expressing glutamate transporter) for the IP3 assay
Assay: Functional assessment of mGluR5 antagonism in cell lines expressing mGluR5d (FLIPR [Ca2+]i mobilization and/or IP3 turnover; not stated which assay gave the values)
Type: cell-based
Settings: assays described herein (FLIPR / IP3), cells expressing human mGluR5d
Description: (§1) The pharmacological properties of the compounds of the invention can be analyzed using standard assays for functional activity. Examples of glutamate receptor assays are well known in the art as described in for example Aramori et al., Neuron 8:757 (1992), Tanabe et al., Neuron 8:169 (1992), Miller et al., J. Neuroscience 15: 6103 (1995), Balazs, et al., J. Neurochemistry 69:151 (1997). The methodology described in these publications is incorporated herein by reference. Conveniently, the compounds of the invention can be studied by means of an assay that measures the mobilization of intracellular calcium, [Ca^2+]i in cells expressing mGluR5.
Intracellular calcium mobilization was measured by detecting changes in fluorescence of cells loaded with the fluorescent indicator fluo-3. Fluorescent signals were measured using the FLIPR system (Molecular Devices). A two addition experiment was used that could detect compounds that either activate or antagonize the receptor.
For FLIPR analysis, cells expressing human mGluR5d were seeded on collagen coated clear bottom 96-well plates with black sides and analysis of [Ca^2+]i mobilization was done 24 hours after seeding.
FLIPR experiments were done using a laser setting of 0.800 W and a 0.4 second CCD camera shutter speed. Each FLIPR experiment was initiated with 160 μL of buffer present in each well of the cell plate. After each addition of the compound, the fluorescence signal was sampled 50 times at 1 second intervals followed by 3 samples at 5 second intervals. Responses were measured as the peak height of the response within the sample period.
EC50 and IC50 determinations were made from data obtained from 8-point concentration response curves (CRC) performed in duplicate. Agonist CRC were generated by scaling all responses to the maximal response observed for the plate. Antagonist block of the agonist challenge was normalized to the average response of the agonist challenge in 14 control wells on the same plate.
We have validated a secondary functional assay for mGluR5d based on Inositol Phosphate (IP3) turnover. IP3 accumulation is measured as an index of receptor mediated phospholipase C turnover. GHEK cells stably expressing the human mGluR5d receptors were incubated with [3H] myo-inositol overnight, washed three times in HEPES buffered saline and pre-incubated for 10 minutes with 10 mM LiCl. Compounds (agonists) were added and incubated for 30 minutes at 37° C. Antagonist activity was determined by pre-incubating test compounds for 15 minutes, then incubating in the presence of glutamate (80 μM) or DHPG (30 μM) for 30 minutes. Reactions were terminated by the addition of perchloric acid (5%). Samples were collected and neutralized, and inositol phosphates were separated using Gravity-Fed Ion-Exchange Columns.
Functional Assessment of mGluR5 Antagonism in Cell Lines Expressing mGluR5D
as §1, with “The” for “The pharmacological”, “pharmacological” for “functional”, “Conveniently, the compounds of the invention can be studied by means of an assay that measures the mobilization of intracellular calcium, [Ca^2+]i in cells expressing mGluR5.” left out

T1 sequence (P41594 21-942 isoform P41594-3 limits assumed): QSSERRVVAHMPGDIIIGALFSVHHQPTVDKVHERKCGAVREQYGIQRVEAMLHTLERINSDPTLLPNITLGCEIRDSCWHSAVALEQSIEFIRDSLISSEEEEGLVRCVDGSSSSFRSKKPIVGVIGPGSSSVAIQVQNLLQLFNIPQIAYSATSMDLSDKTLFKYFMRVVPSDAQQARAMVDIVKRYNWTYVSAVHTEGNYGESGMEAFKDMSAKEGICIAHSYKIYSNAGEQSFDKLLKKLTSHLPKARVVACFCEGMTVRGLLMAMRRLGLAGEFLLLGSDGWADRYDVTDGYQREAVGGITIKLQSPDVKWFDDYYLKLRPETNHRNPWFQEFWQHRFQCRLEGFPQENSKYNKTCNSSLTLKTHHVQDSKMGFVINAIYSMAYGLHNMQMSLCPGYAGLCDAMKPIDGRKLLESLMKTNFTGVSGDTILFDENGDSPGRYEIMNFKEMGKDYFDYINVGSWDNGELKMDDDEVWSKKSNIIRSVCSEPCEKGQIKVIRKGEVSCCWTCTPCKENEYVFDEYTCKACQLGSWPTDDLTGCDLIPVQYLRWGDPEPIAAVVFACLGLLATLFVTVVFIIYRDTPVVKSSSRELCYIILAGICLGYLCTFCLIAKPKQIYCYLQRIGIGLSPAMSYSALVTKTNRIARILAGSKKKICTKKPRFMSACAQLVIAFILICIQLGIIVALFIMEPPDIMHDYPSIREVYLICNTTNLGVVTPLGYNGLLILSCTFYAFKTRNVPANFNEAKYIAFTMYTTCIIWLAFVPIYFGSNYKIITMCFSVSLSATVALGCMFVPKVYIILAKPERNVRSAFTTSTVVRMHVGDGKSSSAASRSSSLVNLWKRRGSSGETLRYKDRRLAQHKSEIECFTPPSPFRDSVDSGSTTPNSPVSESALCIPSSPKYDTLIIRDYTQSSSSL

SMILES	IC50
COCC1CN(c2nccnc2C#N)CCN1C(=O)/C=C/c1cccc(Cl)c1 (centres unmarked) [Example 29.1, 3-[4-[(2E)-3-(3-chlorophenyl)prop-2-enoyl]-3-(methoxymethyl)piperazin-1-yl]pyrazine-2-carbonitrile]	384 nM
C[C@@H]1CN(c2ncccc2C#N)CCN1C(=O)/C=C/c1cccc(Br)c1 [Example 11.22, 2-{(3R)-4-[(2E)-3-(3-bromo-phenyl)prop-2-enoyl]-3-methylpiperazin-1-yl}nicotinonitrile]	33 nM
CCOC(=O)N1CCN(C(=O)/C=C/c2cccc(Cl)c2)CC1 [Example 11.4, ethyl 4-[(2E)-3-(3-chloro-phenyl)prop-2-enoyl]piperazine-1-carboxylate]	1110 nM
C[C@@H]1CN(c2ncc(F)cc2C#N)CCN1C(=O)/C=C/c1cccc(OC(F)F)c1 [Example 11.28, 2-((3R)-4-{(2E)-3-[3-(difluoromethoxy)phenyl]prop-2-enoyl}-3-methylpiperazin-1-yl)-5-fluoronicotinonitrile]	293 nM
O=C(/C=C/c1cccc(Cl)c1)N1CCN(c2ncccc2[N+](=O)[O-])CC1 [Example 11.6, 1-[(2E)-3-(3-chlorophenyl)prop-2-enoyl]-4-(3-nitro-pyridin-2-yl)piperazine]	10 nM
